Laboratory results: ChEMBL document CHEMBL1743141, “Membrane transporters in drug development” (Nat Rev Drug Discov, 2010)

Assays:
Type in all cases: ADME
[1] = target: T1, Solute carrier family 22 member 2 (Homo sapiens, UniProt O15244); assay: Inhibitors of transporters of clinical importance in the absorption and disposition of drugs, OCT2
T1 sequence (O15244 whole entry): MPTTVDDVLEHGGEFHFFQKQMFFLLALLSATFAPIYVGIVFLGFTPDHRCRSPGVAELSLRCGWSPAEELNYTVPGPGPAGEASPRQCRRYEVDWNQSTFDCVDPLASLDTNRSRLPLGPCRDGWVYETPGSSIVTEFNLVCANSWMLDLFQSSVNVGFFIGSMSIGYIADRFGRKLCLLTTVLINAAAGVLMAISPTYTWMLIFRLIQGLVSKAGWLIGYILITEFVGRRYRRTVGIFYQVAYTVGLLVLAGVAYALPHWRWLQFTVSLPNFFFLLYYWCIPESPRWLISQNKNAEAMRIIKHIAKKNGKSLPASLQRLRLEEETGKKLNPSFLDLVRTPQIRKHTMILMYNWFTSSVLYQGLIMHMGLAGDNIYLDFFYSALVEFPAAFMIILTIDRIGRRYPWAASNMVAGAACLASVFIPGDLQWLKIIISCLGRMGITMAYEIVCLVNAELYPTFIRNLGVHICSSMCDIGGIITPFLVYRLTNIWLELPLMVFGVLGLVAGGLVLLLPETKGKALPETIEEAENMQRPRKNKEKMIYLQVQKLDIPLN

[2] = target: Phosphatidylcholine translocator ABCB4 (Homo sapiens, UniProt P21439); assay: Substrates of transporters of clinical importance in the absorption and disposition of drugs, MDR3
[3] = target: ATP-dependent translocase ABCB1 (Homo sapiens, UniProt P08183); assay: Substrates of transporters of clinical importance in the absorption and disposition of drugs, MDR1
[4] = target: T2, Solute carrier organic anion transporter family member 1A2 (Homo sapiens, UniProt P46721); assay: Substrates of transporters of clinical importance in the absorption and disposition of drugs, OATP1A2
T2 sequence (P46721 whole entry): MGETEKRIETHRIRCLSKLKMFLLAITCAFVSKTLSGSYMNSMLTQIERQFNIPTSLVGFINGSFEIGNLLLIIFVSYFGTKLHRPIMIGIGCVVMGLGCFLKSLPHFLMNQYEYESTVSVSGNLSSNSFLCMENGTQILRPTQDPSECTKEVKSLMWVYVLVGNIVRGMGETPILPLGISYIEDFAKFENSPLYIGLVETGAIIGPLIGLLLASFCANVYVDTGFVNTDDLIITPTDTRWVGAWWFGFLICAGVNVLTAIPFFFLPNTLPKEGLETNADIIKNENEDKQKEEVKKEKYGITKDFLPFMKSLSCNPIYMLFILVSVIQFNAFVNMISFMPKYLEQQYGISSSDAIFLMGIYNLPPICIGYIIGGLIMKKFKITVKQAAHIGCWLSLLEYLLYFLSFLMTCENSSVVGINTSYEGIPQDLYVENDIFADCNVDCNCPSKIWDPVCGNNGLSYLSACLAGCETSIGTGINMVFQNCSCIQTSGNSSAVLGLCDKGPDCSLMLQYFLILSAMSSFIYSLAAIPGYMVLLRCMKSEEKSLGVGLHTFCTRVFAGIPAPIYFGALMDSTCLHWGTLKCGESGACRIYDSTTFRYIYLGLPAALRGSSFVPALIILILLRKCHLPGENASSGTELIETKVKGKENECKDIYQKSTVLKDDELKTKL

[5] = target: T3, Solute carrier organic anion transporter family member 1B1 (Homo sapiens, UniProt Q9Y6L6); assay: Substrates of transporters of clinical importance in the absorption and disposition of drugs, OATP1B1
T3 sequence (Q9Y6L6 whole entry): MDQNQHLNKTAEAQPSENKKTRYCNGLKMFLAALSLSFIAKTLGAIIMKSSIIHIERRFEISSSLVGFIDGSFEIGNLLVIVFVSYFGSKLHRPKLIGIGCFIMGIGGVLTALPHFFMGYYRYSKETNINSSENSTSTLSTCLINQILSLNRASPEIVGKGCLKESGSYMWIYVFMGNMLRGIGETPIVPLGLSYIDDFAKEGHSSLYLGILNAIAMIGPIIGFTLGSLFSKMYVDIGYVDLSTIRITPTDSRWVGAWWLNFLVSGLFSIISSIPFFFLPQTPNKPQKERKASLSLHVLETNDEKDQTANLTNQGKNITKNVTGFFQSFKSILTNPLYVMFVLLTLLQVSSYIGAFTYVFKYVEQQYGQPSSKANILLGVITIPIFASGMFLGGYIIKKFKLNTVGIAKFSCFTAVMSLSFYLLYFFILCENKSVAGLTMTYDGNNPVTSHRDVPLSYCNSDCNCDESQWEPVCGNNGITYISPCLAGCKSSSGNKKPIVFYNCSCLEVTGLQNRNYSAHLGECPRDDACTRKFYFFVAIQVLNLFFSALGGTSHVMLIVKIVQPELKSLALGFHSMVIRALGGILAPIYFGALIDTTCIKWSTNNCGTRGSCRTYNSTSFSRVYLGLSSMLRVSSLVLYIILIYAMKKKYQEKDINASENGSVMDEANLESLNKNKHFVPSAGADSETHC

[6] = target: T4, Solute carrier organic anion transporter family member 2B1 (Homo sapiens, UniProt O94956); assay: Substrates of transporters of clinical importance in the absorption and disposition of drugs, OATP2B1
T4 sequence (O94956 whole entry): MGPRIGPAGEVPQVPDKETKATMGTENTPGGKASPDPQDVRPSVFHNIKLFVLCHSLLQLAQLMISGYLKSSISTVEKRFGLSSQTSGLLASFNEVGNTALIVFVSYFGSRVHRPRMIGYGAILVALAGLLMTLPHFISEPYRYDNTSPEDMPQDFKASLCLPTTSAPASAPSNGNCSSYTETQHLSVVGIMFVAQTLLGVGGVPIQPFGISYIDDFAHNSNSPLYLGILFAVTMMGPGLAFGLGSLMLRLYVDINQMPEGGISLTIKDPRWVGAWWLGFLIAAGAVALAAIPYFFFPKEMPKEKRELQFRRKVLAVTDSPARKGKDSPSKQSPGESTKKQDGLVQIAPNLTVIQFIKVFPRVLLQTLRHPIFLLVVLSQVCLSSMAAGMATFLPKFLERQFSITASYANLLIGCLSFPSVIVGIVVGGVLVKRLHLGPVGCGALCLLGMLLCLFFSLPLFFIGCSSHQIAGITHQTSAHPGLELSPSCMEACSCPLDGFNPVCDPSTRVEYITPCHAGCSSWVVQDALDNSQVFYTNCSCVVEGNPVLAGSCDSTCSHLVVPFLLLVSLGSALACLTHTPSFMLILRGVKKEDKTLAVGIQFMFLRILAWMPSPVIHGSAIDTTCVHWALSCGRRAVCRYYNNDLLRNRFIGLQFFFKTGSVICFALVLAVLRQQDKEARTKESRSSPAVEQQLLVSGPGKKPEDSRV

[7] = target: T5, Organic anion transporter 3 (Homo sapiens, UniProt Q8TCC7); assay: Substrates of transporters of clinical importance in the absorption and disposition of drugs, OAT3
T5 sequence (Q8TCC7 whole entry): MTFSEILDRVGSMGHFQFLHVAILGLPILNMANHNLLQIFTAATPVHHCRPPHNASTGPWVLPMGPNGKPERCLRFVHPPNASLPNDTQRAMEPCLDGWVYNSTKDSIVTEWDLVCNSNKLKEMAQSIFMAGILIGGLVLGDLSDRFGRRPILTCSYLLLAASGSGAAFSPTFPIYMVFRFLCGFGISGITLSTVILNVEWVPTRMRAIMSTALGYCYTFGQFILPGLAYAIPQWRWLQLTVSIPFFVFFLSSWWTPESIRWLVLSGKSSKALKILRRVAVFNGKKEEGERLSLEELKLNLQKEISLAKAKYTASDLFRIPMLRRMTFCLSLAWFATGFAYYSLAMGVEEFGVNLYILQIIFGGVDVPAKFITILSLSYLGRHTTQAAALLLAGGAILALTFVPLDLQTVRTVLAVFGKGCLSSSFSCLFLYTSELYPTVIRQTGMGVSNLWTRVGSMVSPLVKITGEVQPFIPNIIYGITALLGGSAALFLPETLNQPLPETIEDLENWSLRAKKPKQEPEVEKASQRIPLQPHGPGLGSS

[8] = target: T6, Solute carrier organic anion transporter family member 1B3 (Homo sapiens, UniProt Q9NPD5); assay: Substrates of transporters of clinical importance in the absorption and disposition of drugs, OATP1B3
T6 sequence (Q9NPD5 whole entry): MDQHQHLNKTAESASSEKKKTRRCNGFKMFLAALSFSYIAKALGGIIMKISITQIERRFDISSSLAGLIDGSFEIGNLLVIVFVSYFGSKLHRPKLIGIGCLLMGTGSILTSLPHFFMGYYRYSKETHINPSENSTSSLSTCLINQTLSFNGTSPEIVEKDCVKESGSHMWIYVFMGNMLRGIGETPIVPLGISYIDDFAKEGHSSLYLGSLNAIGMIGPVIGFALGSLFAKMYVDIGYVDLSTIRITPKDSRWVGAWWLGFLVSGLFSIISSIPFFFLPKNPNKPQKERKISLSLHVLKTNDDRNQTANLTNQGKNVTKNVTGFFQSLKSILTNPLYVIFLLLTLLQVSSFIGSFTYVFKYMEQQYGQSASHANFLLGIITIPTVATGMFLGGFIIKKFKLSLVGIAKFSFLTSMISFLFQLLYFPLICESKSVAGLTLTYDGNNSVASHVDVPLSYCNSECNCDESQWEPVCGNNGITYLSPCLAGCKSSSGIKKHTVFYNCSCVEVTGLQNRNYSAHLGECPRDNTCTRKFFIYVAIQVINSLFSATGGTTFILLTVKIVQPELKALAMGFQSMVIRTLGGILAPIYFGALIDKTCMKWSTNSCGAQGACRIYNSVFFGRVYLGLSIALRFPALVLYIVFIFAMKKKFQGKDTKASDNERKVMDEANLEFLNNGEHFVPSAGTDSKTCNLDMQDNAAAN

[9] = target: T7, Solute carrier family 22 member 1 (Homo sapiens, UniProt O15245); assay: Substrates of transporters of clinical importance in the absorption and disposition of drugs, OCT1
T7 sequence (O15245 whole entry): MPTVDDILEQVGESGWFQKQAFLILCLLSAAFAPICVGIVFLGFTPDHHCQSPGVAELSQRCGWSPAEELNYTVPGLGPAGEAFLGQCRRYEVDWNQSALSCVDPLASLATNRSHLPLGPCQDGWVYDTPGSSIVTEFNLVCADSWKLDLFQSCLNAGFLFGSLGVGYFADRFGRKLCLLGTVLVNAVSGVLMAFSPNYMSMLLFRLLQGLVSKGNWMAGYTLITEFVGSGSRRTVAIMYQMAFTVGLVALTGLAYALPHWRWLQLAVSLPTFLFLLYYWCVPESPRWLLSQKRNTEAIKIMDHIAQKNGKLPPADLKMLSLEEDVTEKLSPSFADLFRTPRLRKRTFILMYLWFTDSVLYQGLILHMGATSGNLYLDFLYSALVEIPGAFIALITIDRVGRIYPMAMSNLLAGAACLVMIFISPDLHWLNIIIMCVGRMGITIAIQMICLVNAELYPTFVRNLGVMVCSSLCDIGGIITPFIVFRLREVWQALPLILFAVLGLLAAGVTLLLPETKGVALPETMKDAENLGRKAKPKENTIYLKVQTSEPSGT

[10] = target: T1, Solute carrier family 22 member 2; assay: Substrates of transporters of clinical importance in the absorption and disposition of drugs, OCT2

Chain of ATP-dependent translocase ABCB1 (P08183 whole entry): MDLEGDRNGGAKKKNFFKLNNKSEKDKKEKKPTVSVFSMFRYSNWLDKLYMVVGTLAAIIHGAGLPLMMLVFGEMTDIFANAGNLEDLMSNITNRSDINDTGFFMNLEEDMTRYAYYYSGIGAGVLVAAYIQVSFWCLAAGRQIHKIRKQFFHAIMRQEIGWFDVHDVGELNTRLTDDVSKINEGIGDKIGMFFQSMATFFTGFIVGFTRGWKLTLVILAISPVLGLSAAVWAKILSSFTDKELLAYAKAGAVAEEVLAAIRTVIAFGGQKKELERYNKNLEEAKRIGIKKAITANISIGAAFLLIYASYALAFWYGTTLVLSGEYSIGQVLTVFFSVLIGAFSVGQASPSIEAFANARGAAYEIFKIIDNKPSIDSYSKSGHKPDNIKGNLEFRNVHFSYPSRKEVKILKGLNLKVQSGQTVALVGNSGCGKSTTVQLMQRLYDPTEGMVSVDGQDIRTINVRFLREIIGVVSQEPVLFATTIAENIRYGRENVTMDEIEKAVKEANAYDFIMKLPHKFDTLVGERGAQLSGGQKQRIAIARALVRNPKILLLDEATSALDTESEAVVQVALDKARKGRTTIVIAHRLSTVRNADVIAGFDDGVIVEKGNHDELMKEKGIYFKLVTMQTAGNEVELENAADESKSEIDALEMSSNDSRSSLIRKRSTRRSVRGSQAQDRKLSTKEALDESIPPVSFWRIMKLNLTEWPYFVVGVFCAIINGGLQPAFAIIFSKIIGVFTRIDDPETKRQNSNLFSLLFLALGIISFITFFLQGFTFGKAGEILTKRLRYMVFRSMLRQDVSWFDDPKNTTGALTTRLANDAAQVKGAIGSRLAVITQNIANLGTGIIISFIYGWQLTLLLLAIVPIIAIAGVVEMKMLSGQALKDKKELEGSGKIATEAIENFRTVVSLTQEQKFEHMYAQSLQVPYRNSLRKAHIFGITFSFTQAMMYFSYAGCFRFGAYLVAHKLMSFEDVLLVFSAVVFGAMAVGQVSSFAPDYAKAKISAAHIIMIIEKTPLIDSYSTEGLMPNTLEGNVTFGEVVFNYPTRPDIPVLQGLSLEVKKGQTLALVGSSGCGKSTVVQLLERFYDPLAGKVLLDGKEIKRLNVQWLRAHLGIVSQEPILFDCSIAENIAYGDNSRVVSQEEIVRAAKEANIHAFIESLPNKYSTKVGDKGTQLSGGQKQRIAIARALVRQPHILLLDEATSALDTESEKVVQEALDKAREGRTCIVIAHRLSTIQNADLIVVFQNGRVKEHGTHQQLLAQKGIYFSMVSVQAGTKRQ
Chain of Phosphatidylcholine translocator ABCB4 (P21439 whole entry): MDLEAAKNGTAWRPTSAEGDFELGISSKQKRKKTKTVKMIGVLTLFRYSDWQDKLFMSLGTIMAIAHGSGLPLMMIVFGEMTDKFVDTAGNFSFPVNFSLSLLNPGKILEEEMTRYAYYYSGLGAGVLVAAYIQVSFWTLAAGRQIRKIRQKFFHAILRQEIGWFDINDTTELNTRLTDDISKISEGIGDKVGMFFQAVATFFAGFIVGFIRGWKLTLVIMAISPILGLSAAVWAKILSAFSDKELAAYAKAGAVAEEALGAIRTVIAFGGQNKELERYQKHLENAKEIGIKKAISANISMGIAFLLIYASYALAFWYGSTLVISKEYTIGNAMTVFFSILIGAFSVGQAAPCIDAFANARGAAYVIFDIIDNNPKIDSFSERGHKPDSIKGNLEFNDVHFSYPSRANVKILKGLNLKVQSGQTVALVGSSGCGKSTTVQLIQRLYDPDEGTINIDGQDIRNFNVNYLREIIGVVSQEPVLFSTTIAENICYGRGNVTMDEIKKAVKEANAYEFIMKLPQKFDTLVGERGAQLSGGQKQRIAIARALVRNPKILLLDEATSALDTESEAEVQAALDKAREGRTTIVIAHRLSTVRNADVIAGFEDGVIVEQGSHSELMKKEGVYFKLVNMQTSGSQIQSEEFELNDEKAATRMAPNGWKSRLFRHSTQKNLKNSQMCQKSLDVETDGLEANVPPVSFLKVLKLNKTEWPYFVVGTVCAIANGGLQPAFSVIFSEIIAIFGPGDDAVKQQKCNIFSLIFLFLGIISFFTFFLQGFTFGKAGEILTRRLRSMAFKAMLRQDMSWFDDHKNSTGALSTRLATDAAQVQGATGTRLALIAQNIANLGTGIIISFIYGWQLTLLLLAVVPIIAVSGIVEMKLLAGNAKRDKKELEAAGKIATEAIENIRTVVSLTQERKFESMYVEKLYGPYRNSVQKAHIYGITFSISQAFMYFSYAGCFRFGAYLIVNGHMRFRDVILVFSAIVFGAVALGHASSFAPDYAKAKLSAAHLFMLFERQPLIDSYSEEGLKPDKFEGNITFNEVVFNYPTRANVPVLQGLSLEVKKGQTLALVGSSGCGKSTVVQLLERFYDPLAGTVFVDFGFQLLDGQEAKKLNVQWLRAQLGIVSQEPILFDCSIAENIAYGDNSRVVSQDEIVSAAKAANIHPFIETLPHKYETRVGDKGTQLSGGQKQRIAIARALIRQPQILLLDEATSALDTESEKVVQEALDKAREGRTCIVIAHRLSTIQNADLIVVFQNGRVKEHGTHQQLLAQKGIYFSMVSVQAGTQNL

O=C(O)COCCN1CCN(C(c2ccccc2)c2ccc(Cl)cc2)CC1 (stereo unspecified) [CETIRIZINE]
Activity [1]: transporter inhibitor

CN/C(=N/CCSCc1nc[nH]c1C)NC#N [CIMETIDINE]
Activity [1]: transporter inhibitor

C[C@H]1O[C@@H](O[C@H]2[C@@H](O)C[C@H](O[C@H]3[C@@H](O)C[C@H](O[C@H]4CC[C@@]5(C)[C@H](CC[C@@H]6[C@@H]5C[C@@H](O)[C@]5(C)[C@@H](C7=CC(=O)OC7)CC[C@]65O)C4)O[C@@H]3C)O[C@@H]2C)C[C@H](O)[C@@H]1O [DIGOXIN]
Activity [2]: transporter substrate | Activity [3]: transporter substrate

C[C@]12CC[C@@H]3c4ccc(OS(=O)(=O)O)cc4CC[C@H]3[C@@H]1CCC2=O [ESTRONE SULFURIC ACID]
Activity [4]: transporter substrate | Activity [5]: transporter substrate | Activity [6]: transporter substrate | Activity [7]: transporter substrate

CC(=O)O[C@H]1C(=O)[C@@]2(C)[C@H]([C@H](OC(=O)c3ccccc3)[C@]3(O)C[C@H](OC(=O)[C@H](O)[C@@H](NC(=O)c4ccccc4)c4ccccc4)C(C)=C1C3(C)C)[C@]1(OC(C)=O)CO[C@@H]1C[C@@H]2O [PACLITAXEL]
Activity [2]: transporter substrate | Activity [3]: transporter substrate

CCCCCCCCCCCCCCSCC(=O)OC[C@H](COP(=O)([O-])OCC[N+](C)(C)C)OC(=O)CSCCCCCCCCCCCCCC [PHOSPHATIDYLCHOLINE]
Activity [2]: transporter substrate

Cc1cccc(C)c1NC(=O)CC12CCCN1CCC2 [PILSICAINIDE]
Activity [1]: transporter inhibitor

O=C1OC(c2ccc(O)c(S(=O)(=O)[O-])c2)(c2ccc(O)c(S(=O)(=O)[O-])c2)c2c(Br)c(Br)c(Br)c(Br)c21.[Na+].[Na+] [SULFOBROMOPHTHALEIN SODIUM]
Activity [4]: transporter substrate | Activity [5]: transporter substrate | Activity [8]: transporter substrate | Activity [6]: transporter substrate

C[C@]12CC[C@H]3[C@@H](CCC4=CC(=O)CC[C@@]43C)[C@@H]1CC[C@@H]2O [TESTOSTERONE]
Activity [1]: transporter inhibitor

CC[C@]1(O)C[C@@H]2CN(CCc3c([nH]c4ccccc34)[C@@](C(=O)OC)(c3cc4c(cc3OC)N(C)[C@H]3[C@@](O)(C(=O)OC)[C@H](OC(C)=O)[C@]5(CC)C=CCN6CC[C@]43[C@@H]65)C2)C1 [VINBLASTINE]
Activity [2]: transporter substrate | Activity [3]: transporter substrate

OXALIPLATIN
Activity [9]: transporter substrate | Activity [10]: transporter substrate
